From patent US12152030B2 (NOVOSTAR PHARMACEUTICALS, LTD., priority 2019, dated 2024)
Where a name gives a salt, the structure may show the parent alone.

How the values were obtained:
[1] = target: T1, GAK (Homo sapiens, UniProt O14976); assay: KinomeScan, GAK; assay type: binding
T1 sequence (O14976 1-1311): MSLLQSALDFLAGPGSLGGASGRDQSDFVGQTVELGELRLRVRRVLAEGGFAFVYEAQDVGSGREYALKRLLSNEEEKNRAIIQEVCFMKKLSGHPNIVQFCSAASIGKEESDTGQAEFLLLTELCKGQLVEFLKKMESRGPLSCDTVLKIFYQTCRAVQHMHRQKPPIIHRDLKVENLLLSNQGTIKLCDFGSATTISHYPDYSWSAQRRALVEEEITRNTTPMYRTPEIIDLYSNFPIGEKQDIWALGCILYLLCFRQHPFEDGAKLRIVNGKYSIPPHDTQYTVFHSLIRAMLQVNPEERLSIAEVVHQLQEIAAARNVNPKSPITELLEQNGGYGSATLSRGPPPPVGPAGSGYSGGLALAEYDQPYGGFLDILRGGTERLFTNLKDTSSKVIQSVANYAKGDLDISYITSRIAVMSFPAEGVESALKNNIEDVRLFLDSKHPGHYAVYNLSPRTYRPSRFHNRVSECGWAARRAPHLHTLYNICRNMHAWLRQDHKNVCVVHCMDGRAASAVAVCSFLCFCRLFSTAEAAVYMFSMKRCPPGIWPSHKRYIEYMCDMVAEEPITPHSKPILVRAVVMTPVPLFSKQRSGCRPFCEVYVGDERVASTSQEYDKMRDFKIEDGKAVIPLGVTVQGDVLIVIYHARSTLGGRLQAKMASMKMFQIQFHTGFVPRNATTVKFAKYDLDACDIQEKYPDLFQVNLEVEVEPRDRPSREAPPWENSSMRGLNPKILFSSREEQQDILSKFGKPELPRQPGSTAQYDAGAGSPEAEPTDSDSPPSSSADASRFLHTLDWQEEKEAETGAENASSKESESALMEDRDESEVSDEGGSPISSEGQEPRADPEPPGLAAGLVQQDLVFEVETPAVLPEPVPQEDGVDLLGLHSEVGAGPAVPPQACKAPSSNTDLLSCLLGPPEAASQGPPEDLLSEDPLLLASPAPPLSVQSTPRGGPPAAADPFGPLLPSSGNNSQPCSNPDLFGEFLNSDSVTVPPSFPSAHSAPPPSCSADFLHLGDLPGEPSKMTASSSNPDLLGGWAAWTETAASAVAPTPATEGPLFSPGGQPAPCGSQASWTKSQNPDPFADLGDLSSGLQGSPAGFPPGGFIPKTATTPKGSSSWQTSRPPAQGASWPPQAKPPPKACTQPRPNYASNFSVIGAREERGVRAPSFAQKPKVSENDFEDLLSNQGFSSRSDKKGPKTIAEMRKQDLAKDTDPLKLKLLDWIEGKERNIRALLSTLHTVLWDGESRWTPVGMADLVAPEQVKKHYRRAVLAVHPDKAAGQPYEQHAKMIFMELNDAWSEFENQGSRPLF
Source text: (§1) KinomeScan was used to determine the kinase selectivity of compound 2.

[2] = target: T2, MNK1 (Homo sapiens, UniProt Q9BUB5); assay: MNK biological enzyme assay (HTRF kinase assay), MNK1; assay type: biochemical; parameters: purchased ThermoFisher PV6023; settings: 3 ng/ul MNK1, 1 μM STK1 peptide, 100 μM ATP
Description: A HTRF kinase assay kit (Cisbio, catalog number 62ST1PEB) was used to determine the MNK inhibitory activity of the compounds. All kinase reactions were performed in the reaction buffer (provided in the kit). The final MNK1 reaction involved 3 ng/ul recombinant MNK1 (ThermoFisher, PV6023), 1 μM MNK substrate peptide STK1 (provided in the kit), 100 μM ATP, and different concentrations of the inhibitory compounds of interest. The final MNK2 reaction involved 1 ng/μl recombinant MNK2 (ThermoFisher, PV5607), 1 μM MNK substrate peptide STK1 (provided in the kit), 100 μM ATP, and different concentrations of the inhibitory compounds of interest. The final DMSO concentration in each of the reactions was 1%.
The kinase reaction was performed in a final volume of 10 μl in a 384-well white flat-bottomed polystyrene plate. The MNK1/2 enzyme was pre-incubated with the compound and substrate peptide for 5 minutes, and then ATP was added thereto. After addition of ATP, the kinase reaction was incubated at 25° C. for 120 minutes or 60 minutes. The reaction was subsequently terminated by adding 5 μl of EU3+ substrate antibody detection reagent and 5 μl of XL665 detection reagent, and incubating for another 60 minutes. The luminescent signal was detected with an EnVision microplate reader counter (Perkin Elmer), and the signal from 10-point dilution series of the compounds was used to calculate the compound concentration (IC50) required to achieve 50% inhibition of enzyme activity.
In this respect, IC50 values which are less than 0.01 μM were marked as “+++”, which are from 0.01 to 0.1 μM were marked as “++”, and which are greater than 0.1 and up to 10.0 μM were marked as “+”, and NA meant “not detected”.

[3] = target: T3, STK17A/DRAK1 (Homo sapiens, UniProt Q9UEE5); assay: KinomeScan, DRAK1; assay type: binding
T3 sequence (Q9UEE5 1-414): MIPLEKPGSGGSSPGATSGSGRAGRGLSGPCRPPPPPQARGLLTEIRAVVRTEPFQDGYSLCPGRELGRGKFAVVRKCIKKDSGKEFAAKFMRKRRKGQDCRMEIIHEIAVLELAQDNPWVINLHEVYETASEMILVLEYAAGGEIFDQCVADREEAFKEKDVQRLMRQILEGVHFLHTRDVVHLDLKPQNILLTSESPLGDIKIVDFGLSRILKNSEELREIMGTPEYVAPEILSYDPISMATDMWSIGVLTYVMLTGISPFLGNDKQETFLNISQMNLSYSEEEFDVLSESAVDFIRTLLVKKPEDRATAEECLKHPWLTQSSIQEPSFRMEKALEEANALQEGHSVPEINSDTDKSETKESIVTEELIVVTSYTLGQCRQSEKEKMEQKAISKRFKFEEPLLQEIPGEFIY
Source text: as §1

[4] = target: MNK2 (Homo sapiens, UniProt Q9HBH9); assay: KinomeScan, MNK2; assay type: binding
Source text: as §1

[5] = target: T2, MNK1; assay: KinomeScan, MNK1; assay type: binding
Source text: as §1

T2 sequence (Q9BUB5 whole entry): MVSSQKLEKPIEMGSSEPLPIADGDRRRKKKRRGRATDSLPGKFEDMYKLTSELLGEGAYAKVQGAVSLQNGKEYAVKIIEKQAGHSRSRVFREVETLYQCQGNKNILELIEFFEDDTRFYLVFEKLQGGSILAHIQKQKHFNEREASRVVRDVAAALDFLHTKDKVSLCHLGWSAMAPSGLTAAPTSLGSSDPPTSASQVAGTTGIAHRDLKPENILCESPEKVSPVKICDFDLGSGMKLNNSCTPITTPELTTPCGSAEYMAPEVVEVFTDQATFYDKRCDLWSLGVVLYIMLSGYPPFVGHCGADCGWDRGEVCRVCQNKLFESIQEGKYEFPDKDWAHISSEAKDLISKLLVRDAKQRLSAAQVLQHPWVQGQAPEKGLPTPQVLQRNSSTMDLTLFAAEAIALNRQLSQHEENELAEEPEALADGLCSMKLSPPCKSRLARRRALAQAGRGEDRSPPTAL
MNK2, sequence (Q9HBH9 whole entry): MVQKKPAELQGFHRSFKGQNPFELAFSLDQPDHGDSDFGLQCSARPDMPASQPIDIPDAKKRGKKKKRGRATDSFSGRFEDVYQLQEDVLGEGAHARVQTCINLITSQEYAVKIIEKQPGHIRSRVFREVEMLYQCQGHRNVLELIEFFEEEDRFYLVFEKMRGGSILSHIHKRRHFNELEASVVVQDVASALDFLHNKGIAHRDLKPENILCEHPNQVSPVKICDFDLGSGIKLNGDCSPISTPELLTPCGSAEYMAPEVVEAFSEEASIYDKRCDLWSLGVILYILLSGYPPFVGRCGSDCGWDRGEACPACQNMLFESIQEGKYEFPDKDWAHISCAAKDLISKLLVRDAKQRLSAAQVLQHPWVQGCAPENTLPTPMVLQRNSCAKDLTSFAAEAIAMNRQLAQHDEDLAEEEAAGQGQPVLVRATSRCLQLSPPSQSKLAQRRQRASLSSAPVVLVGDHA

Question: Cc1c2c(c(=O)n3c1C(=O)NC31CCCCC1)Nc1cc(N)ncc1C2 [Compound 2, 8′-amino-12′-methyl-6′,11′-dihydro-2′H-spiro[cyclohexane-1,3′-imidazole[1′,5′:1,6]pyrido[3,4-B][1,6]naphthyridine]-1′,5′-dione hydrochloride] was tested. Which inhibition at 1 µM [1] did it give?
Answer: 97.8%

Question: What about the Kd ([1]; dose response analysis, read-out: Kd of interaction with GAK) of the same molecule?
Answer: 50 nM

Question: And the IC50 [2]?
Answer: 10 to 100 nM

Question: What about the inhibition at 1 µM [3] of the same molecule?
Answer: 62%

Question: And the Kd ([3]; dose response analysis, read-out: Kd of interaction with DRAK1)?
Answer: 370 nM

Question: What about the inhibition at 1 µM [4] of the same molecule?
Answer: 99.5%

Question: What about the inhibition at 1 µM [5] of the same molecule?
Answer: 97.2%
